BindingDB's records for doi:10.1021/jm970166j (Roche Bioscience, 1997)

Tests used:
[1] = target: T1, 5-hydroxytryptamine receptor 1A (Mus musculus, UniProt Q64264); assay: The compound's binding affinity against 5-hydroxytryptamine 1A receptor
T1 sequence (Q64264 whole entry): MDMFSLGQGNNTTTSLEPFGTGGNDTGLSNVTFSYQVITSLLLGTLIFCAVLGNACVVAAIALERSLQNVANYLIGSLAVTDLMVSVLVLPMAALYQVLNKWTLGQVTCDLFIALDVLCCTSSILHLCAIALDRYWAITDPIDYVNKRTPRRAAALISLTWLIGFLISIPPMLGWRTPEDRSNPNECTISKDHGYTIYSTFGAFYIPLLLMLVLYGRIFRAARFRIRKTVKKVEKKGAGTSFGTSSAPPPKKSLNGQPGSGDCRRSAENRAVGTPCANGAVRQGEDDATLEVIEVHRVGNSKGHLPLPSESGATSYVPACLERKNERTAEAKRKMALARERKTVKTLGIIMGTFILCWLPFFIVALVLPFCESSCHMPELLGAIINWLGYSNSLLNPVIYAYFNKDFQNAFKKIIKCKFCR

D(2) dopamine receptor = D(2) dopamine receptor (Homo sapiens, UniProt P14416); assay: The compound's binding affinity against Dopamine receptor D2
[2] = target: T2, Alpha-2B adrenergic receptor (Rattus norvegicus, UniProt P19328); assay: The compound's binding affinity against Alpha-2B adrenergic receptor from rat kidney homogenate in the presence of phentolamine
T2 sequence (P19328 whole entry): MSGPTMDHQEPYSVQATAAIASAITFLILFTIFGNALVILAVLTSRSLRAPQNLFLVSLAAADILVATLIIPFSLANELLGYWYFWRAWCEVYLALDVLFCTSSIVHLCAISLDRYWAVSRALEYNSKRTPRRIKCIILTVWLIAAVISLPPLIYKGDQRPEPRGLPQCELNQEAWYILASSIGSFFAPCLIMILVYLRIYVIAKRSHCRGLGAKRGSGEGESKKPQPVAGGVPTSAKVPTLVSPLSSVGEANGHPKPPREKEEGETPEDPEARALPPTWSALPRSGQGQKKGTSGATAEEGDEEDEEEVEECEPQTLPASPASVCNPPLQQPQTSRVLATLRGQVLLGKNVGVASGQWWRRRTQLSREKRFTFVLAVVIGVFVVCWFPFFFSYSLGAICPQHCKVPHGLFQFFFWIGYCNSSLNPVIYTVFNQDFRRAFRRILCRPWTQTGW

D(2) dopamine receptor, sequence (P14416 whole entry): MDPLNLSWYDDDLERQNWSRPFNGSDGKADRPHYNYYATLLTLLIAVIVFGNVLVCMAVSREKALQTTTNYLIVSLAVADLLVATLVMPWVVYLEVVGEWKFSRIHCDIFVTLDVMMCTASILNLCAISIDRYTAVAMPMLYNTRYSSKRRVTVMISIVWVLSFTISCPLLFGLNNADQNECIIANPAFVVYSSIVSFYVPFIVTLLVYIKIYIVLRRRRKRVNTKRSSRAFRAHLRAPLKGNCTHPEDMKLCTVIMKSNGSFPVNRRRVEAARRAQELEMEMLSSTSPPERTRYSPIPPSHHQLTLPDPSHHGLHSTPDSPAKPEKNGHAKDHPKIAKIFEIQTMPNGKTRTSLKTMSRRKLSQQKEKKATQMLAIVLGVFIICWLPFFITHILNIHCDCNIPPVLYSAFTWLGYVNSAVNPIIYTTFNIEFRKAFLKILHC

pKi [1] | pKi (D(2) dopamine receptor) | pKi [2] | SMILES
6.5 | 6.4 |  | COc1cc(F)ccc1N1CCN(CCCNc2c(C(=O)N(C)C)cnc3c2c(C)nn3C)CC1
7.5 | 8.1 | 8.6 | Cc1nn(C)c2ncc(C(=O)N(C)C)c(NCCCN3CCN(c4ccccc4OCC(F)(F)F)CC3)c12
7.6 | 7.4 |  | COc1ccccc1N1CCN(CCCNc2ncccc2C(=O)N(C)C)CC1
6.7 | 6.7 | 6.5 | COc1cc(F)ccc1N1CCN(CCCNc2ncccc2C(=O)N(C)C)CC1
